EP0051773A1, “Penicillins, their salts, process for their preparation and pharmaceutical compositions containing them” (Dr. Karl Thomae GmbH, priority 1980, dated 1982)
In brackets after ≈: the same amount, converted by molar mass.

Tests used:
E.coli ATCC 11 775 = assay: experimental intraperitoneal infection in mice, ED50 (survival); type: in vivo, Mäuse; conditions: Escherichia coli, ATCC 11 / ATCC 1175, sc, 168 h; female NMRI mice, i.p. infection, s.c. application, treated once, 7 days observation
Description: (§1) Eine Reihe der erfindungsgemäßen Verbindungen wurde in vivo bei experimentellen Infektionen an Mäusen untersucht. Man verwendete als pathogene Bakterien E.coli ATCC 11 775 und Pseudomonas aeruginosa Walter. Es wurde eine intraperitoneale Infektion mit 0,2 ml einer 5%igen Mucinsuspension der Bakterien gesetzt. Dies entspricht etwa 2x10^6 Keime E.coli bzw. 8x10^5 Keime Pseudomonas/Maus. Weibliche Mäuse vom Stamm NMRI wurden in Gruppen von jeweils 10 Tieren aufgeteilt, zwei Gruppen blieben unbehandelt, die restlichen Gruppen wurden mit verschiedenen Dosen der jeweiligen erfindungsgemäßen Penicilline zur Bestimmung der ED50 (Dosis, bei der 50 % der Tiere überleben) behandelt. Bei der E.coli-Infektion wurde einmal therapiert. Bei der Pseudomonas-Infektion wurde dreimal behandelt.
(§2) Der Beobachtungszeitraum betrug in beiden Fällen 7 Tage. Die Ergebnisse dieser Teste mit repräsentativen Vertretern der erfindungsgemäßen Penicilline sind in der Tabelle 3 dargestellt.

[1] = test system: Pseudomonas aeruginosa Walter; assay: as above; type: in vivo, Mäuse; conditions: sc, 168 h, female NMRI mice, i.p. infection, s.c. application, treated three times, 7 days observation, read-out: ED50 Pseud. aerug. Walter
Description: as §1, §2

[2] = test system: Serratia marcescens ATCC 13 880; assay: serial dilution test in microtiter system (bacteriostasis, MIC); type: cell-based; conditions: ATCC13, liquid medium, 18 to 20 h at 37°C, read-out: MHK-Werte Serr. marcesc. ATCC 13 880
Description: (§3) Für die Untersuchungen wurde die Methode des Reihenverdünnungstestes im Mikrotitersystem angewandt. Die Prüfung der Substanzen auf Bakteriostase erfolgte in flüssigem Medium. Es wurde die Bakteriostasewirkung bei folgenden Konzentrationen untersucht.
(§4) Es wurde ein Nährboden folgender Zusammensetzung benutzt: 10 g Pepton, 8 g Fleischextrakt-Oxoid, 3 g Natriumschlorid, 2 g sek. Natriumphosphat werden mit dest. Wasser auf 1000 ml aufgefüllt (pH 7,2-7,4). Lediglich bei der Testung gegen Streptokokken wurde 1% Glucose hinzugefügt. Das Alter der Primärkulturen betrug etwa 20 Stunden. Die Einstellung der Keimsuspension erfolgte am Photometer (nach "Eppendorf") (Reagenzglas-Durchmesser 14 mm, Filter 546 nm) anhand der Trübung einer Bariumsulfat-Vergleichssuspension, die durch eine Bariumsulfat-Aufschwemmung erzeugt wurde, welche durch die Zugabe von 3,0 ml 1%ige Bariumchloridlösung in 97 ml 1%ige Schwefelsäure entstand. Nach der Einstellung wurden Streptococcus Aronson im Verhältnis 1:15 und die übrigen Testkeime im Verhältnis 1:1500 mit einer Kochsalzlösung weiter verdünnt.
(§5) 16 mg der jeweiligen Substanz wurden in 10 ml-Meßkolben eingewogen und mit dem Lösungsmittel bis zur Marke aufgefüllt. Die weitere Verdünnungsreihe wurde mit destilliertem Wasser oder dem jeweiligen Lösungsmittel hergestellt.
(§6) Die Vertiefungen der Mikrotiterplatten wurden mit 0,2 ml Nährmedium, 0,01 ml der entsprechenden Substanzverdünnung und mit einem Tropfen Keimsuspension (0,01 ml) beschickt und 18 bis 20 Stunden bei 37°C bebrütet. Eine Lösungsmittelkontrolle wurde stets mitgeführt.
(§7) Die Ablesung wurde makroskopisch vorgenommen, wobei die jeweilige Grenkonzentration (= niedrigste noch bakteriostatisch wirksame Konzentration) ermittelt wurde.
(§8) Als Testorganismen wurden benützt: - Staphylococcus aureus SG 511, Escherichia coli ATCC 11 775, Pseudomonas aeruginosa Hamburgensis und Walter, Serratia marcescens ATCC 13 880, Klebsiella pneumoniae ATCC 10 031 und BC 6, Proteus mirabilis Hamburgensis, Proteus rettgeri BC 7 und Enterobacter cloacae ATCC 13 047.
(§9) In der folgenden Tabelle 2 sind die ermittelten minimalen Hemmkonzentrationen (MIC) für typische Vertreter der erfindungsgemäßen Verbindungen aufgeführt, wobei sich die Ziffern auf die Penicilline der Tabelle 1 Seite 18 beziehen.

[3] = test system: Pseudomonas aeruginosa Hamburgensis; assay: as above; type: cell-based; conditions: liquid medium, 18 to 20 h at 37°C, read-out: MHK-Werte Pseud. aerug. Hbg.
Description: as §3, §4, §5, §6, §7, §8, §9

[4] = test system: Staphylococcus aureus SG 511; assay: as above; type: cell-based; conditions: SG511, liquid medium, 18 to 20 h at 37°C, read-out: MHK-Werte Staph. aureus SG 511
Description: as §3, §4, §5, §6, §7, §8, §9

[5] = test system: Klebsiella pneumoniae ATCC 10 031; assay: as above; type: cell-based; conditions: ATCC10, liquid medium, 18 to 20 h at 37°C, read-out: MHK-Werte Kl. pneum. ATCC 10 031
Description: as §3, §4, §5, §6, §7, §8, §9

[6] = test system: Proteus mirabilis Hamburgensis; assay: as above; type: cell-based; conditions: liquid medium, 18 to 20 h at 37°C, read-out: MHK-Werte Prot. mir. Hbg.
Description: as §3, §4, §5, §6, §7, §8, §9

[7] = test system: Pseudomonas aeruginosa Walter; assay: as above; type: cell-based; conditions: liquid medium, 18 to 20 h at 37°C, read-out: MHK-Werte Pseud. aerug. Walter
Description: as §3, §4, §5, §6, §7, §8, §9

[8] = test system: Enterobacter cloacae ATCC 13 047; assay: as above; type: cell-based; conditions: ATCC13, liquid medium, 18 to 20 h at 37°C, read-out: MHK-Werte Eb. cloacae 13 047
Description: as §3, §4, §5, §6, §7, §8, §9

[9] = test system: Escherichia coli ATCC 11 775; assay: as above; type: cell-based; conditions: ATCC11, liquid medium, 18 to 20 h at 37°C, read-out: MHK-Werte E.coli ATCC 11 755
Description: as §3, §4, §5, §6, §7, §8, §9

[10] = test system: Klebsiella pneumoniae BC 6; assay: as above; type: cell-based; conditions: BC6, liquid medium, 18 to 20 h at 37°C, read-out: MHK-Werte Kl. pneum. BC 6
Description: as §3, §4, §5, §6, §7, §8, §9

Proteus rettgeri BC 7 = assay: as above; type: cell-based; conditions: Providencia rettgeri, BC7; liquid medium, 18 to 20 h at 37°C; read-out: MHK-Werte Prot. rettg. BC 7
Description: as §3, §4, §5, §6, §7, §8, §9

SMILES | ED50 (E.coli ATCC 11 775) | ED50 [1] | MIC [2] | MIC [3] | MIC [4] | MIC [5] | MIC [6] | MIC [7] | MIC [8] | MIC [9] | MIC [10] | MIC (Proteus rettgeri BC 7)
CC1(C)S[C@@H]2[C@H](NC(=O)[C@H](NC(=O)N3CCNC3=O)c3ccccc3)C(=O)N2[C@H]1C(=O)O [A, 6-{D-α'-[(2-Oxo-imidazolidin-1-yl)-carbonylamino]-4-phenylacetamido}-penicillansäure-Natriumsalz, reference compound] | > 100 mg/kg | 225 mg/kg | 2 µg/mL (≈ 4.33 µM) | 8 µg/mL (≈ 17.3 µM) | 0.5 µg/mL (≈ 1.08 µM) | 32 µg/mL (≈ 69.3 µM) | 0.5 µg/mL (≈ 1.08 µM) | 8 µg/mL (≈ 17.3 µM) | 32 µg/mL (≈ 69.3 µM) | 16 µg/mL (≈ 34.7 µM) | 32 µg/mL (≈ 69.3 µM) | 2 µg/mL (≈ 4.33 µM)
CC1(C)S[C@@H]2[C@H](NC(=O)[C@H](NC(=O)N3CCN(S(C)(=O)=O)C3=O)c3ccccc3)C(=O)N2[C@H]1C(=O)O [B, Mezlocillin, reference compound] | > 100 mg/kg | – | 0.5 µg/mL (≈ 0.927 µM) | 16 µg/mL (≈ 29.7 µM) | 0.25 µg/mL (≈ 0.463 µM) | 4 µg/mL (≈ 7.41 µM) | 0.25 µg/mL (≈ 0.463 µM) | 32 µg/mL (≈ 59.3 µM) | 4 µg/mL (≈ 7.41 µM) | 2 µg/mL (≈ 3.71 µM) | 4 µg/mL (≈ 7.41 µM) | 1 µg/mL (≈ 1.85 µM)
CC1(C)S[C@@H]2[C@H](NC(=O)[C@H](NC(=O)Nc3cnc(Nc4ccc(S(N)(=O)=O)cc4)nc3O)c3ccc(O)c(Cl)c3)C(=O)N2[C@H]1C(=O)O [Verbindung 4] | 6.1 mg/kg | – | 0.25 µg/mL (≈ 0.354 µM) | 2 µg/mL (≈ 2.83 µM) | 0.25 µg/mL (≈ 0.354 µM) | 2 µg/mL (≈ 2.83 µM) | 0.25 µg/mL (≈ 0.354 µM) | 1 µg/mL (≈ 1.41 µM) | 1 µg/mL (≈ 1.41 µM) | 0.25 µg/mL (≈ 0.354 µM) | 2 µg/mL (≈ 2.83 µM) | 0.5 µg/mL (≈ 0.707 µM)
CC1(C)S[C@@H]2[C@H](NC(=O)[C@H](NC(=O)Nc3cnc(Nc4ccc(S(N)(=O)=O)cc4)nc3O)C3=CCC=CC3)C(=O)N2[C@H]1C(=O)O [Verbindung 12] | 5 mg/kg | – | – | – | – | – | – | – | – | – | – | –
CN(C)S(=O)(=O)c1ccc(Nc2ncc(NC(=O)N[C@@H](C(=O)N[C@@H]3C(=O)N4[C@@H]3SC(C)(C)[C@@H]4C(=O)O)c3ccccc3)c(O)n2)cc1 [Verbindung 14] | 4.2 mg/kg | 8.5 mg/kg | – | – | – | – | – | – | – | – | – | –
CCCCNS(=O)(=O)c1ccc(Nc2ncc(NC(=O)N[C@@H](C(=O)N[C@@H]3C(=O)N4[C@@H]3SC(C)(C)[C@@H]4C(=O)O)c3ccc(O)cc3)c(O)n2)cc1 [Verbindung 20] | 6.6 mg/kg | – | – | – | – | – | – | – | – | – | – | –
CC1(C)SC2C(NC(=O)C(NC(=O)Nc3cnc(Nc4ccc(C(N)=O)cc4)nc3O)c3ccccc3)C(=O)N2C1C(=O)O (stereo not shown) [Verbindung 34] | 3.2 mg/kg | – | 0.25 µg/mL (≈ 0.403 µM) | 1 µg/mL (≈ 1.61 µM) | 0.25 µg/mL (≈ 0.403 µM) | 4 µg/mL (≈ 6.44 µM) | 0.06 µg/mL (≈ 0.0967 µM) | 2 µg/mL (≈ 3.22 µM) | 2 µg/mL (≈ 3.22 µM) | 0.25 µg/mL (≈ 0.403 µM) | 2 µg/mL (≈ 3.22 µM) | 0.25 µg/mL (≈ 0.403 µM)
CC1(C)SC2C(NC(=O)C(NC(=O)Nc3cnc(Nc4ccc([N+](=O)[O-])cc4)nc3O)c3ccccc3)C(=O)N2C1C(=O)O (stereo not shown) [Verbindung 41] | 8.3 mg/kg | – | 0.12 µg/mL (≈ 0.193 µM) | 2 µg/mL (≈ 3.21 µM) | 0.25 µg/mL (≈ 0.402 µM) | 0.5 µg/mL (≈ 0.803 µM) | 0.06 µg/mL (≈ 0.0964 µM) | 2 µg/mL (≈ 3.21 µM) | 0.5 µg/mL (≈ 0.803 µM) | 0.12 µg/mL (≈ 0.193 µM) | 0.5 µg/mL (≈ 0.803 µM) | 0.25 µg/mL (≈ 0.402 µM)
CC1(C)SC2C(NC(=O)C(NC(=O)Nc3cnc(Nc4ccc(NC(N)=O)cc4)nc3O)c3ccc(O)cc3)C(=O)N2C1C(=O)O (stereo not shown) [Verbindung 43] | 5.6 mg/kg | – | 0.5 µg/mL (≈ 0.767 µM) | 1 µg/mL (≈ 1.53 µM) | 0.5 µg/mL (≈ 0.767 µM) | 8 µg/mL (≈ 12.3 µM) | 0.06 µg/mL (≈ 0.0921 µM) | 1 µg/mL (≈ 1.53 µM) | 4 µg/mL (≈ 6.14 µM) | 0.5 µg/mL (≈ 0.767 µM) | 8 µg/mL (≈ 12.3 µM) | 1 µg/mL (≈ 1.53 µM)
CC1(C)S[C@@H]2[C@H](NC(=O)C(NC(=O)Nc3cnc(Nc4ccc(C(N)=O)c(O)c4)nc3O)c3ccc(O)cc3)C(=O)N2[C@H]1C(=O)O (stereo partly shown) [Verbindung 50] | 4 mg/kg | – | 0.25 µg/mL (≈ 0.383 µM) | 1 µg/mL (≈ 1.53 µM) | 0.5 µg/mL (≈ 0.766 µM) | 2 µg/mL (≈ 3.06 µM) | 0.06 µg/mL (≈ 0.0919 µM) | 1 µg/mL (≈ 1.53 µM) | 2 µg/mL (≈ 3.06 µM) | 0.25 µg/mL (≈ 0.383 µM) | 2 µg/mL (≈ 3.06 µM) | 0.5 µg/mL (≈ 0.766 µM)
CC1(C)S[C@@H]2[C@H](NC(=O)C(NC(=O)Nc3cnc(NCc4ccc(O)cc4)nc3O)c3ccc(O)cc3)C(=O)N2[C@H]1C(=O)O (stereo partly shown) [Verbindung 57] | 7.2 mg/kg | – | 1 µg/mL (≈ 1.6 µM) | 2 µg/mL (≈ 3.21 µM) | 0.25 µg/mL (≈ 0.401 µM) | 4 µg/mL (≈ 6.41 µM) | 0.06 µg/mL (≈ 0.0962 µM) | 1 µg/mL (≈ 1.6 µM) | 1 µg/mL (≈ 1.6 µM) | 0.25 µg/mL (≈ 0.401 µM) | 8 µg/mL (≈ 12.8 µM) | 0.5 µg/mL (≈ 0.802 µM)
CC1(C)S[C@@H]2[C@H](NC(=O)C(NC(=O)Nc3cnc(NCc4ccccc4)nc3O)c3ccccc3)C(=O)N2[C@H]1C(=O)O (stereo partly shown) [Verbindung 61] | – | – | 0.5 µg/mL (≈ 0.845 µM) | 2 µg/mL (≈ 3.38 µM) | 0.25 µg/mL (≈ 0.423 µM) | 1 µg/mL (≈ 1.69 µM) | 0.25 µg/mL (≈ 0.423 µM) | 2 µg/mL (≈ 3.38 µM) | 1 µg/mL (≈ 1.69 µM) | 0.25 µg/mL (≈ 0.423 µM) | 2 µg/mL (≈ 3.38 µM) | 0.5 µg/mL (≈ 0.845 µM)
